Reference: patent US20230085307A1, “PYRIDAZINONE COMPOUND AND HERBICIDE” (NISSAN CHEMICAL CORPORATION, priority 2019, published 2023)

Experiments:
[1] = system: late watergrass; experiment: Test Example 1: herbicidal activity, application before weed generation under submerged conditions (Table 16, symbol A); assay type: in vivo, late watergrass (Echinochloa oryzicola); details: for Herbicidal effect on A: late watergrass (grade 0-5): 320 g/ha applied herbicide
Summary of the method: (§1)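 Emulsion formulation, water-diluted to set dose, was put onto the flooded surface (4 cm depth, alluvial soil) the same day weeds were sown and 2.5-leaf rice transplanted. After 3 weeks at 25-30 °C under glass, each species was rated 0 (≤5% kill) to 5 (≥90% kill).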

[2] = system: Japanese bulrush; experiment: Test Example 1: herbicidal activity, application before weed generation under submerged conditions (Table 16, symbol B); assay type: in vivo, Japanese bulrush (Schoenoplectus juncoides); details: for Herbicidal effect on B: Japanese bulrush (grade 0-5): 320 g/ha applied herbicide
Summary of the method: as §1

[3] = system: chickweed; experiment: Test Example 4: herbicidal effect by soil treatment (Table 19, symbol P); assay type: in vivo, common chickweed (Stellaria media)
Summary of the method: (§2)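 Herbicidal effect was rated 3 weeks after treatment, using the scoring criteria of an earlier test. The compound, formulated as an emulsion and diluted in water to a set herbicide amount, had been sprayed uniformly on soil over freshly sown seeds. Growth took place in a greenhouse at 25° C. to 30° C.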

[4] = system: windgrass; experiment: Test Example 4: herbicidal effect by soil treatment (Table 19, symbol L); assay type: in vivo, windgrass (Apera spica-venti)
Summary of the method: as §2

[5] = system: Italian ryegrass; experiment: Test Example 4: herbicidal effect by soil treatment (Table 19, symbol K); assay type: in vivo, Italian ryegrass (Lolium multiflorum)
Summary of the method: as §2

[6] = system: barnyard grass; experiment: Test Example 3: herbicidal effect by foliage application, Wagner pot (Table 18, symbol H); assay type: in vivo, barnyard grass (Echinochloa crus-galli); details: for herbicidal effect on H: barnyard grass: amount of applied herbicide 320 g/ha
Summary of the method: (§3)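 Plants were sown in alluvial soil held under 0.1–0.5 cm standing water and grown 14 days in a greenhouse at 25–30 °C. An emulsifiable formulation, water-diluted to the set dose, was then sprayed onto the foliage, and effects were scored three weeks later using previously defined criteria.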

[7] = system: wild oat; experiment: Test Example 5: herbicidal effect by foliage application, plastic box (Table 20, symbol I); assay type: in vivo, wild oat (Avena fatua); details: foliage application
Summary of the method: (§4)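 Foliar spray test: emulsion formulation diluted in water to a set application rate, sprayed onto 14-day-old plants raised in diluvial soil at 25° C to 30° C under glass. Both herbicidal effect and crop effect rated visually three weeks later.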

[8] = system: Chinese sprangletop; experiment: Test Example 3: herbicidal effect by foliage application, Wagner pot (Table 18, symbol D); assay type: in vivo, chinese sprangletop (Leptochloa chinensis); details: for herbicidal effect on D: Chinese sprangletop: amount of applied herbicide 320 g/ha
Summary of the method: as §3

[9] = system: Italian ryegrass; experiment: Test Example 5: herbicidal effect by foliage application, plastic box (Table 20, symbol K); assay type: in vivo, Italian ryegrass (Lolium multiflorum); details: foliage application
Summary of the method: as §4

[10] = system: lambsquarters; experiment: Test Example 5: herbicidal effect by foliage application, plastic box (Table 20, symbol O); assay type: in vivo, lambsquarters (Chenopodium album); details: foliage application
Summary of the method: as §4

[11] = system: oval-leafed pondweed; experiment: Test Example 1: herbicidal activity, application before weed generation under submerged conditions (Table 16, symbol C); assay type: in vivo, oval-leafed pondweed (Monochoria vaginalis); details: for Herbicidal effect on C: oval-leafed pondweed (grade 0-5): 320 g/ha applied herbicide
Summary of the method: as §1

[12] = system: green foxtail; experiment: Test Example 5: herbicidal effect by foliage application, plastic box (Table 20, symbol G); assay type: in vivo, green foxtail (Setaria viridis); details: foliage application
Summary of the method: as §4

[13] = system: velvetleaf; experiment: Test Example 5: herbicidal effect by foliage application, plastic box (Table 20, symbol M); assay type: in vivo, velvetleaf (Abutilon theophrasti); details: foliage application
Summary of the method: as §4

[14] = system: lambsquarters; experiment: Test Example 4: herbicidal effect by soil treatment (Table 19, symbol O); assay type: in vivo, lambsquarters (Chenopodium album)
Summary of the method: as §2

[15] = system: rice flat sedge; experiment: Test Example 3: herbicidal effect by foliage application, Wagner pot (Table 18, symbol E); assay type: in vivo, rice flat sedge (Cyperus iria); details: for herbicidal effect on E: rice flat sedge: amount of applied herbicide 320 g/ha
Summary of the method: as §3

[16] = system: blackgrass; experiment: Test Example 5: herbicidal effect by foliage application, plastic box (Table 20, symbol J); assay type: in vivo, blackgrass (Alopecurus myosuroides); details: foliage application
Summary of the method: as §4

[17] = system: southern crabgrass; experiment: Test Example 5: herbicidal effect by foliage application, plastic box (Table 20, symbol F); assay type: in vivo, southern crabgrass (Digitaria ciliaris); details: foliage application
Summary of the method: as §4

[18] = amount of applied herbicide 320 g/ha
[19] = 320 g/ha, three weeks after application
[20] = amount of applied herbicide 80 g/ha
[21] = 80 g/ha, three weeks after application
[22] = AAH 320 g/ha, evaluated three weeks after application
[23] = 320 g/ha, evaluated three weeks after application

CCCOc1ccc(-c2sc3ccccc3c2-c2c(O)c(C)nn(C)c2=O)cc1 [1-019]
Herbicidal effect on A: late watergrass (grade 0-5) [1]: 5 (Herbicidal rate of 90% or more (almost completely withered))
Herbicidal effect on B: Japanese bulrush (grade 0-5) [2]: 5 (Herbicidal rate of 90% or more (almost completely withered))
herbicidal effect rating, P: chickweed [3, 18]: 5 (Herbicidal rate of 90% or more (almost completely withered))
herbicidal effect rating, L: windgrass [4, 18]: 0 (Herbicidal rate of 5% or less (almost no effect))
herbicidal effect rating, K: Italian ryegrass [5, 18]: 3 (Herbicidal rate of 40% or more and less than 70%)
herbicidal effect on H (barnyard grass), rating 0-5 ([6]; 320 g/ha): 5 (Herbicidal rate of 90% or more (almost completely withered))
herbicidal effect grade, I: wild oat [7, 19]: 3 (Herbicidal rate of 40% or more and less than 70%)
herbicidal effect on D (Chinese sprangletop), rating 0-5 ([8]; 320 g/ha): 4 (Herbicidal rate of 70% or more and less than 90%)
herbicidal effect grade, K: Italian ryegrass [9, 19]: 4 (Herbicidal rate of 70% or more and less than 90%)
herbicidal effect grade, O: lambsquarters [10, 19]: 5 (Herbicidal rate of 90% or more (almost completely withered))
Herbicidal effect on C: oval-leafed pondweed (grade 0-5) [11]: 4 (Herbicidal rate of 70% or more and less than 90%)
herbicidal effect grade, G: green foxtail [12, 19]: 5 (Herbicidal rate of 90% or more (almost completely withered))
herbicidal effect grade, M: velvetleaf [13, 19]: 5 (Herbicidal rate of 90% or more (almost completely withered))
herbicidal effect rating, O: lambsquarters [14, 18]: 4 (Herbicidal rate of 70% or more and less than 90%)
herbicidal effect on E (rice flat sedge), rating 0-5 ([15]; 320 g/ha): 5 (Herbicidal rate of 90% or more (almost completely withered))
herbicidal effect grade, J: blackgrass [16, 19]: 4 (Herbicidal rate of 70% or more and less than 90%)
herbicidal effect grade, F: southern crabgrass [17, 19]: 4 (Herbicidal rate of 70% or more and less than 90%)

CCOc1ccccc1-c1sc2cc(OC)ccc2c1-c1c(O)c(C)nn(C)c1=O [3-070]
Herbicidal effect, A: late watergrass [1, 20]: 5 (Herbicidal rate of 90% or more (almost completely withered))
Herbicidal effect, B: Japanese bulrush [2, 20]: 5 (Herbicidal rate of 90% or more (almost completely withered))
P: chickweed, herbicidal effect grade [3, 20]: 4 (Herbicidal rate of 70% or more and less than 90%)
L: windgrass, herbicidal effect grade [4, 20]: 0 (Herbicidal rate of 5% or less (almost no effect))
K: Italian ryegrass, herbicidal effect grade [5, 20]: 0 (Herbicidal rate of 5% or less (almost no effect))
herbicidal effect on barnyard grass (H) ([6]; 80 g/ha): 5 (Herbicidal rate of 90% or more (almost completely withered))
I: wild oat, herbicidal effect grade [7, 21]: 5 (Herbicidal rate of 90% or more (almost completely withered))
herbicidal effect on Chinese sprangletop (D) ([8]; 80 g/ha): 5 (Herbicidal rate of 90% or more (almost completely withered))
K: Italian ryegrass, herbicidal effect grade [9, 21]: 4 (Herbicidal rate of 70% or more and less than 90%)
O: lambsquarters, herbicidal effect grade [10, 21]: 5 (Herbicidal rate of 90% or more (almost completely withered))
Herbicidal effect, C: oval-leafed pondweed [11, 20]: 4 (Herbicidal rate of 70% or more and less than 90%)
G: green foxtail, herbicidal effect grade [12, 21]: 4 (Herbicidal rate of 70% or more and less than 90%)
M: velvetleaf, herbicidal effect grade [13, 21]: 5 (Herbicidal rate of 90% or more (almost completely withered))
O: lambsquarters, herbicidal effect grade [14, 20]: 0 (Herbicidal rate of 5% or less (almost no effect))
herbicidal effect on rice flat sedge (E) ([15]; 80 g/ha): 5 (Herbicidal rate of 90% or more (almost completely withered))
J: blackgrass, herbicidal effect grade [16, 21]: 5 (Herbicidal rate of 90% or more (almost completely withered))
F: southern crabgrass, herbicidal effect grade [17, 21]: 5 (Herbicidal rate of 90% or more (almost completely withered))

Cc1nn(C)c(=O)c(-c2c(-c3ccc(OC(F)F)cc3)sc3ccc(F)cc23)c1OC(=O)C1CCCC1 [2-280]
Herbicidal effect on A: late watergrass (grade 0-5) [1]: 5 (Herbicidal rate of 90% or more (almost completely withered))
Herbicidal effect on B: Japanese bulrush (grade 0-5) [2]: 3 (Herbicidal rate of 40% or more and less than 70%)
herbicidal effect on P: chickweed [3, 18]: 1 (Herbicidal rate of 5% or more and less than 20%)
herbicidal effect on L: windgrass [4, 18]: 0 (Herbicidal rate of 5% or less (almost no effect))
herbicidal effect on K: Italian ryegrass [5, 18]: 5 (Herbicidal rate of 90% or more (almost completely withered))
herbicidal effect on H: barnyard grass [6]: 5 (Herbicidal rate of 90% or more (almost completely withered))
I: wild oat, herbicidal effect (criteria 0-5) [7, 22]: 3 (Herbicidal rate of 40% or more and less than 70%)
herbicidal effect on D: Chinese sprangletop [8]: 3 (Herbicidal rate of 40% or more and less than 70%)
K: Italian ryegrass, herbicidal effect (criteria 0-5) [9, 22]: 5 (Herbicidal rate of 90% or more (almost completely withered))
O: lambsquarters, herbicidal effect (criteria 0-5) [10, 22]: 5 (Herbicidal rate of 90% or more (almost completely withered))
Herbicidal effect on C: oval-leafed pondweed (grade 0-5) [11]: 0 (Herbicidal rate of 5% or less (almost no effect))
G: green foxtail, herbicidal effect (criteria 0-5) [12, 22]: 4 (Herbicidal rate of 70% or more and less than 90%)
M: velvetleaf, herbicidal effect (criteria 0-5) [13, 22]: 5 (Herbicidal rate of 90% or more (almost completely withered))
herbicidal effect on O: lambsquarters [14, 18]: 5 (Herbicidal rate of 90% or more (almost completely withered))
herbicidal effect on E: rice flat sedge [15]: 4 (Herbicidal rate of 70% or more and less than 90%)
J: blackgrass, herbicidal effect (criteria 0-5) [16, 22]: 5 (Herbicidal rate of 90% or more (almost completely withered))
F: southern crabgrass, herbicidal effect (criteria 0-5) [17, 22]: 3 (Herbicidal rate of 40% or more and less than 70%)

CCCC(=O)Oc1c(C)nn(C)c(=O)c1-c1c(-c2ccc(OC3CC3)cc2)sc2ccc(F)cc12 [2-218]
Herbicidal effect on A: late watergrass (grade 0-5) [1]: 5 (Herbicidal rate of 90% or more (almost completely withered))
Herbicidal effect on B: Japanese bulrush (grade 0-5) [2]: 5 (Herbicidal rate of 90% or more (almost completely withered))
P: chickweed, herbicidal effect rating [3, 18]: 1 (Herbicidal rate of 5% or more and less than 20%)
L: windgrass, herbicidal effect rating [4, 18]: 0 (Herbicidal rate of 5% or less (almost no effect))
K: Italian ryegrass, herbicidal effect rating [5, 18]: 4 (Herbicidal rate of 70% or more and less than 90%)
herbicidal effect on H: barnyard grass [6]: 5 (Herbicidal rate of 90% or more (almost completely withered))
herbicidal effect on I: wild oat (criteria 0-5) [7, 23]: 3 (Herbicidal rate of 40% or more and less than 70%)
herbicidal effect on D: Chinese sprangletop [8]: 3 (Herbicidal rate of 40% or more and less than 70%)
herbicidal effect on K: Italian ryegrass (criteria 0-5) [9, 23]: 4 (Herbicidal rate of 70% or more and less than 90%)
herbicidal effect on O: lambsquarters (criteria 0-5) [10, 23]: 5 (Herbicidal rate of 90% or more (almost completely withered))
Herbicidal effect on C: oval-leafed pondweed (grade 0-5) [11]: 5 (Herbicidal rate of 90% or more (almost completely withered))
herbicidal effect on G: green foxtail (criteria 0-5) [12, 23]: 2 (Herbicidal rate of 20% or more and less than 40%)
herbicidal effect on M: velvetleaf (criteria 0-5) [13, 23]: 5 (Herbicidal rate of 90% or more (almost completely withered))
O: lambsquarters, herbicidal effect rating [14, 18]: 4 (Herbicidal rate of 70% or more and less than 90%)
herbicidal effect on E: rice flat sedge [15]: 5 (Herbicidal rate of 90% or more (almost completely withered))
herbicidal effect on J: blackgrass (criteria 0-5) [16, 23]: 1 (Herbicidal rate of 5% or more and less than 20%)
herbicidal effect on F: southern crabgrass (criteria 0-5) [17, 23]: 0 (Herbicidal rate of 5% or less (almost no effect))
